As a reminder, the IC50 is the concentration at which inhibition is half-maximal.

Our source for the IC50 values is patent publication US9101616B2, “Aryl substituted carboxamide derivatives as calcium or sodium channel blockers” (RaQualia Pharma Inc., priority 2009, dated 2015).

The assay addresses T1, human T-type channel alpha-1H (CaV 3.2) (Homo sapiens, UniProt O95180).
T1 construct: expressed in transfected cells; host or cells: HEK 293
As to the kind of experiment: Ca2+ Influx Assay (cell-based fluorescent, FDSS). The conditions noted are these: HEK 293 cells expressing human CaV 3.2. As to the method:
Inhibition of T-type calcium channel activity was determined by cell-based flu-orescent Ca^2+ influx assay, in which potassium ionophore was added to decrease resting membrane potential and extra-cellular high-K^+ stimulation was used to modulate the membrane potential of the cell. The changes in fluorescent signal were monitored by the cell imaging technology by Hamamatsu Photonics's Functional Drug Screening System (FDSS).
HEK 293 cells expressing the human T-type channel alpha-1H (CaV 3.2) were maintained in DMEM supplemented with 10% heat-inactivated FBS, 100 units/ml Penicillin, 100 microg/ml Streptomycin, 150 microg/ml Zeocin, 300 microg/ml Geneticin. The cells were grown in a 5% CO2 humidified incubator at 37° C.
• 1. Cells were harvested and seeded in a poly-D-lysine coated black-sided clear bottom 384-well plate at density of 10,000 cells/well at 24 hours prior to assay. • 2. Incubate at 37° C. in 5% CO2. Day Two: • 1. Wash each well with assay buffer (see below) and leave 20 RI using plate washer, ELx-405 Select CW (BIO-TEK). • 2. Add 20 μL of assay buffer containing 6 μM Fluo-4-AM (Molecular Probes) and 0.005% Pluronic F-127 to each well. • 3. Incubate the plate at 37° C. for 1 hour. • 4. Wash each well assay buffer (see below) and leave 20 μl using plate washer, ELx-405 Select CW (BIO-TEK). • 5. Add 10 μl of compound solution into each well by FDSS6000 and leave the plate for 4.5 min, and then add 10 μl of potassium ionophore solution. • 6. Add 20 μl of high-K^+ depolarizing solution (see below) and monitor the change of fluorescent signal.
The IC50 values for compounds of the present invention were determined from 7-point dose-response studies. Curves were generated using the average of duplicate wells for each data point. Finally, the IC50 values are calculated with the best-fit dose curve determined by XLfit.

T1 sequence (O95180 whole entry): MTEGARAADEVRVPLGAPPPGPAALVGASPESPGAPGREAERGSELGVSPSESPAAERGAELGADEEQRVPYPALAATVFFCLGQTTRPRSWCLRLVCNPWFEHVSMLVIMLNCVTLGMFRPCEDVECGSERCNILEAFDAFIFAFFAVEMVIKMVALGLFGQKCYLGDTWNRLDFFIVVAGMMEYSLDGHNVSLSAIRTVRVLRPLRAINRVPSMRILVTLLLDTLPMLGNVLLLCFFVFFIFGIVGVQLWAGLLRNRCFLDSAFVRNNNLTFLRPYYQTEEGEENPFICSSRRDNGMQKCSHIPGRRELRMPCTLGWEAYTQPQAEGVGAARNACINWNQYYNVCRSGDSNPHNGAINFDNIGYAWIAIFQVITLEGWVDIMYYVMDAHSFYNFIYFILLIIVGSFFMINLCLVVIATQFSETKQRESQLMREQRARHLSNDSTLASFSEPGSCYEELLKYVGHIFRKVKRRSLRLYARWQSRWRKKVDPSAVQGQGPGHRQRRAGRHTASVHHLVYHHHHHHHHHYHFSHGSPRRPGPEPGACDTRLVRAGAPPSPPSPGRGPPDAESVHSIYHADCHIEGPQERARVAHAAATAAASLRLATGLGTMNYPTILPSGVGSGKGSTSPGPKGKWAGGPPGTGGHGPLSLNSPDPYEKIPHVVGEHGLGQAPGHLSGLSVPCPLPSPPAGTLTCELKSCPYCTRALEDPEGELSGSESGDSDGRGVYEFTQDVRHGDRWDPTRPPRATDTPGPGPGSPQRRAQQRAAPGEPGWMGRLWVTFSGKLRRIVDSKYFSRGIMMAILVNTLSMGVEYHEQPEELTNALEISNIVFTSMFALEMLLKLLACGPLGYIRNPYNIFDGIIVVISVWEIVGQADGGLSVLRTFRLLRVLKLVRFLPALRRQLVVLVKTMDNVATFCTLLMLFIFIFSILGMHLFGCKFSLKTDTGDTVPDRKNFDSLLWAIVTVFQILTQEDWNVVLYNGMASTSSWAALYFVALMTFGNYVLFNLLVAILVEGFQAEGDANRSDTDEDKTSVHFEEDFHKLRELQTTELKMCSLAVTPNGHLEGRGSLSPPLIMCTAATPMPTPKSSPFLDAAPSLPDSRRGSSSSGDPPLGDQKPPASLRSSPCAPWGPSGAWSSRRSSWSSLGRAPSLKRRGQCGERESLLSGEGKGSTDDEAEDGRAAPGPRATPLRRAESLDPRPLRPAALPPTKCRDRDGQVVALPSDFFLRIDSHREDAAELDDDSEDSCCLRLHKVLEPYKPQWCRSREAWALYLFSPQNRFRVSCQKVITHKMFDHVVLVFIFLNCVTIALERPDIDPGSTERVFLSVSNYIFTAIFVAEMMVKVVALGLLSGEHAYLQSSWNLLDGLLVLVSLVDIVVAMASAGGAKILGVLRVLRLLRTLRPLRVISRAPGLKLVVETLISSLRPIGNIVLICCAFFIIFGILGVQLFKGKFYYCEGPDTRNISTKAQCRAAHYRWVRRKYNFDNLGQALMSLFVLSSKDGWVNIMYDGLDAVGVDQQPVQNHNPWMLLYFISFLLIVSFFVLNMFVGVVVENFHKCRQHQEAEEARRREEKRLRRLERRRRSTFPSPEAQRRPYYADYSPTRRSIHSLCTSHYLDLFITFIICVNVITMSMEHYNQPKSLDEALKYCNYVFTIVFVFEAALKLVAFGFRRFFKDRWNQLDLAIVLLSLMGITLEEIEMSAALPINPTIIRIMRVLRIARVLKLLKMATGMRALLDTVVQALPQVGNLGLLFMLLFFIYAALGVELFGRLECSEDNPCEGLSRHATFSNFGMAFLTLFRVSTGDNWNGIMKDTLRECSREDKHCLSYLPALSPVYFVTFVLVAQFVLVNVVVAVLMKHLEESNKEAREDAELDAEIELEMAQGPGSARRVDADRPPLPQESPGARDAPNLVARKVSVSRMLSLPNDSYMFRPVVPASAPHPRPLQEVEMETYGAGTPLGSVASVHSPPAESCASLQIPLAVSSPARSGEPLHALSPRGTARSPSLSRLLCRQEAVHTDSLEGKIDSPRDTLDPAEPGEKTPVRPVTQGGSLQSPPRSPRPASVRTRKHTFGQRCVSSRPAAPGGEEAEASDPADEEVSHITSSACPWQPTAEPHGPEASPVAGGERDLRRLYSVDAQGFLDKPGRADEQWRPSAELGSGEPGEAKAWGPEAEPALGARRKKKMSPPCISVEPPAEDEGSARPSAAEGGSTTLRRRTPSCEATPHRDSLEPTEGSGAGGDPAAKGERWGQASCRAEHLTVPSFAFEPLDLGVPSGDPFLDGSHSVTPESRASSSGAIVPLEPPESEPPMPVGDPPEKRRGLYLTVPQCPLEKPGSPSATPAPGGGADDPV

As to `C[C@@H](NC(=O)[C@@H]1C[C@H]1c1cc2ccccc2[nH]1)c1cnc(OCC(F)(F)F)cn1` (relative stereo) [Example 226, (1R*,2R*)-2-(1H-indol-2-yl)-N-((R)-1-(5-(2,2,2-trifluoroethoxy)pyrazin-2-yl)ethyl)cyclopropanecarboxamide], the IC50 is no more than 300 nM. Under `C[C@@H](NC(=O)[C@H]1C[C@@H]1c1ccc(F)cc1Cl)c1ccc(OCC2CC2)cn1` (relative stereo) [Example 261, (1S*,2S*)-2-(2-chloro-4-fluorophenyl)-N-((R)-1-(5-(cyclopropylmethoxy)pyridin-2-yl)ethyl)cyclopropanecarboxamide] stands no more than 300 nM; under `C[C@@H](NC(=O)CCc1c[nH]c2ccccc12)c1ccc(OCC(F)(F)F)cn1` [Example 33, (R)-3-(1H-indol-3-yl)-N-(1-(5-(2,2,2-trifluoroethoxy)pyridin-2-yl)ethyl)propanamide], no more than 300 nM; under `COc1ccc([C@H]2C[C@@H]2C(=O)N[C@H](C)c2cnc(OCC(F)(F)F)cn2)cc1C` (relative stereo) [Example 309, (1S*,2S*)-2-(4-methoxy-3-methylphenyl)-N-((R)-1-(5-(2,2,2-trifluomethoxy)pyrazin-2-yl)ethyl)cyclopropanecarboxamide], no more than 300 nM. As for `C[C@@H](NC(=O)[C@@H]1C[C@H]1c1cccc2cc[nH]c12)c1ccc(OCC2CC2)cn1` (relative stereo) [Example 317, (1R*,2R*)-N-((R)-1-(5-(cyclopropylmethoxy)pyridin-2-yl)ethyl)-2-(1H-indol-7-yl)cyclopropanecarboxamide], the IC50 was no more than 300 nM. Next, `COc1ccc([C@H]2C[C@@H]2C(=O)N[C@H](C)c2ccc(OCC3CC3)cn2)cc1C` (relative stereo) [Example 307, (1S*,2S*)-N-((R)-1-(5-(cyclopropyl-methoxy)pyridin-2-yl)ethyl)-2-(4-methoxy-3-methylphenyl) cyclopropanecarboxamide]: no more than 300 nM. `C[C@H](NC(=O)[C@@H]1C[C@H]1c1cccc(OCc2ccccc2)c1)c1ccc(OCC(F)(F)F)cn1` (stereo in doubt) [Example 346, (1R*,2R*)-2-(3-(benzyloxy)phenyl)-N-((S)-1-(5-(2,2,2-trifluoroethoxy)pyridin-2-yl)ethyl)cyclopropanecarboxamide] had an IC50 of no more than 300 nM. Next, `C[C@@H](NC(=O)C1CC1c1cc2cc(F)ccc2[nH]1)c1ccc(OCC(F)(F)F)nc1` (stereo partly drawn) [Example 210, trans-2-(5-fluoro-1H-indol-2-yl)-N-((R)-1-(6-(2,2,2-trifluoroethoxy)pridin-3-yl)ethyl)cyclopropanecarboxamide]: no more than 300 nM; `C[C@@H](NC(=O)[C@H]1C[C@@H]1COc1ccc(F)cc1)c1ccc(OCC(F)(F)F)cn1` (relative stereo) [Example 296, (1S*,2S*)-2-((4-fluorophenoxy)methyl)-N-((R)-1-(5-(2,2,2-trifluoroethoxy)pyridin-2-yl)ethyl)cyclopropanecarboxamide]: no more than 300 nM. Next, `C[C@@H](NC(=O)[C@@H]1C[C@H]1c1ccc2cc[nH]c2c1)c1ccc(OCC(F)(F)F)cn1` (relative stereo) [Example 204, (1R*,2R*)-2-(1H-indol-6-yl)-N-((R)-1-(5-(2,2,2-trifluoroethoxy)pyridin-2-yl)ethyl)cyclopropanecarboxamide]: no more than 300 nM.

Regarding `C[C@@H](NC(=O)CCCc1c[nH]c2ccccc12)c1ccc(OCC(F)(F)F)cn1` [Example 57, (R)-4-(1H-indol-3-yl)-N-(1-(5-(2,2,2-trifluoroethoxy)pyridin-2-yl)ethyl)butanamide], the IC50 was no more than 300 nM. Under `C[C@@H](NC(=O)[C@@H]1C[C@H]1c1cccc2cc[nH]c12)c1ccc(OCC(F)(F)F)cn1` (relative stereo) [Example 276, (1R*,2R*)-2-(1H-indol-7-yl)-N-((R)-1-(5-(2,2,2-trifluoroethoxy)pyridin-2-yl)ethyl)cyclopropanecarboxamide] stands no more than 300 nM. Under `C[C@@H](NC(=O)C1CC1COc1ccc(Cl)cc1)c1ccc(OCC(F)(F)F)cn1` (stereo in doubt) [Example 169, trans-2-((4-chlorophenoxy)methyl)-N-((R)-1-(5-(2,2,2-trifluoroethoxy)pyridin-2-yl)ethyl)cyclopropanecarboxamide] stands no more than 300 nM; under `COc1ccc([C@H]2C[C@@H]2C(=O)N[C@H](C)c2ccc(OCC3CC3)cn2)c(F)c1` (relative stereo) [Example 263, (1S*,2S*)-N-((R)-1-(5-(cyclopropylmethoxy)pyridin-2-yl)ethyl)-2-(2-fluoro-4-methoxy-phenyl)cyclopropanecarboxamide], no more than 300 nM. Next, `C[C@@H](NC(=O)[C@@H]1C[C@H]1c1cccc2[nH]ccc12)c1ccc(OCC(F)(F)F)cn1` (relative stereo) [Example 277, (1R*,2R*)-2-(1H-indol-4-yl)-N-((R)-1-(5-(2,2,2-trifluoroethoxy)pyridin-2-yl)ethyl)cyclopropanecarboxamide]: no more than 300 nM. Turning to `C[C@@H](NC(=O)C1CC1c1ccc2cnn(C)c2c1)c1cnc(OCC(F)(F)F)cn1` (stereo partly drawn) [Example 229, trans-2-(1-methyl-1H-indazol-6-yl)-N-((R)-1-(5-(2,2,2-trifluoroethoxy)pyrazin-2-yl)ethyl)cyclopropanecarboxemide], the IC50 is no more than 300 nM.

Compound `COc1ccc([C@@H]2C[C@H]2C(=O)N[C@H](C)c2cnc(OCC(F)(F)F)cn2)cc1C` (relative stereo) [Example 310, (1R*,2R*)-2-(4-methoxy-3-methylphenyl)-N-((R)-1-(5-(2,2,2-trifluoroethoxy)pyrazin-2-yl)ethyl)cyclopropanecarboxamide] returned an IC50 of no more than 300 nM. Under `C[C@@H](NC(=O)C1CC1c1cc(F)cc(F)c1)c1cnc(OCC(F)(F)F)cn1` (stereo in doubt) [Example 194, trans-2-(3,5-difluorophenyl)-N-((R)-1-(5-(2,2,2-trifluoroethoxy)pyrazin-2-yl)ethyl)cyclopropanecarboxamide] stands no more than 300 nM. Under `COc1ccc(C2CC2C(=O)N[C@H](C)c2ccc(OCC(F)(F)F)cn2)cc1C` (stereo in doubt) [Example 202, trans-2-(4-methoxy-3-methylphenyl)-N-((R)-1-(5-(2,2,2-trifluoroethoxy)pyridin-2-yl)ethyl)cyclopropanecarboxamide] stands no more than 300 nM; under `C[C@@H](NC(=O)C1CC1c1cccc2cc[nH]c12)c1ccc(OCC(F)(F)F)nc1` (stereo in doubt) [Example 212, trans-2-(1H-indol-7-yl)-N-((R)-1-(6-(2,2,2-trifluoroethoxy)pyridin-3-yl)ethyl)cyclopropanecarboxamide], no more than 300 nM; under `C[C@@H](NC(=O)[C@H]1C[C@@H]1c1cccc2cc[nH]c12)c1ccc(OCC(F)(F)F)cn1` (relative stereo) [Example 275, (1S*,2S*)-2-(1H-indol-7-yl)-N-((R)-1-(5-(2,2,2-trifluoroethoxy)pyridin-2-yl)ethyl)cyclopropanecarboxamide], no more than 300 nM. Next, `C[C@@H](NC(=O)C1CC1Cn1ccc2ccccc21)c1ccc(OCC(F)(F)F)cn1` (stereo in doubt) [Example 182, trans-2-((1H-indol-1-yl)methyl)-N-((R)-1-(5-(2,2,2-trifluoroethoxy)pyridin-2-yl)ethyl)cyclopropanecarboxamide]: no more than 300 nM; `C[C@@H](NC(=O)C1CC1c1nc2ccccc2n1C)c1cnc(OCC(F)(F)F)cn1` (stereo in doubt) [Example 244, trans-2-(1-methyl-1H-benzo[d]imidazol-2-yl)-N-((R)-1-(5-(2,2,2-trifluoroethoxy)pyrazin-2-yl)ethyl)cyclopropanecarboxamide]: no more than 300 nM.

Consider `C[C@@H](NC(=O)[C@H]1C[C@@H]1c1ccccc1)c1cnc(OCC(F)(F)F)cn1` (relative stereo) [Example 282, (1S*,2S*)-2-phenyl-N-((R)-1-(5-(2,2,2-trifluoroethoxy)pyrazin-2-yl)ethyl)cyclopropanecarboxamide], for which the IC50 is no more than 300 nM. Under `Cc1cccc([C@H]2C[C@@H]2C(=O)N[C@H](C)c2ccc(OCC(F)(F)F)cn2)c1` (relative stereo) [Example 251, (1S*,2S*)-2-m-tolyl-N-((R)-1-(5-(2,2,2-trifluoroethoxy)pyridin-2-yl)ethyl)cyclopropanecarboxamide] stands no more than 300 nM; under `C[C@@H](NC(=O)[C@H]1C[C@@H]1c1nc2ccccc2[nH]1)c1cnc(OCC(F)(F)F)cn1` (relative stereo) [Example 286, (1S*,2S*)-2-(1H-benzo[d]imidazol-2-yl)-N-((R)-1-(5-(2,2,2-trifluoroethoxy)pyrazin-2-yl)ethyl)cyclopropanecarboxamide], no more than 300 nM.
